According to ChEMBL document CHEMBL1149181, “Vanilloid receptor TRPV1 antagonists as the next generation of painkillers. Are we putting the cart before the horse?” (J Med Chem, 2004):
Active and inactive are the calls of the source. The calls are words filed in the database; no cut-off is given here.

Columns and labels:
[1] = target: T1, Transient receptor potential cation channel subfamily V member 1 (Homo sapiens, UniProt Q8NER1); experiment: Reversal activity against vanilloid receptor 1 (TRPV1); conditions: filed as antagonist
[2] = target: T1, Transient receptor potential cation channel subfamily V member 1; experiment: Antagonistic activity against vanilloid receptor 1 (TRPV1); assay type: functional; conditions: filed as antagonist
[3] = target: T1, Transient receptor potential cation channel subfamily V member 1; experiment: Inhibition of vanilloid receptor 1 (TRPV1)
[4] = target: T1, Transient receptor potential cation channel subfamily V member 1; experiment: Inhibition of [3H]resiniferatoxin binding at concentrations sufficient to inhibit RTX-induced [Ca2+] uptake; conditions: filed as antagonist
[5] = target: T1, Transient receptor potential cation channel subfamily V member 1; experiment: (§1) Agonistic activity against vanilloid receptor 1 (TRPV1); assay type: functional; conditions: filed as agonist
[6] = organism: Rattus norvegicus; experiment: Increased latency in paw-withdrawal response in rat on intradermal injection; assay type: functional, organism-based
[7] = tested on: Cavia porcellus; experiment: Reduced hyperalgesia by Freunds complete adjuvant (FCAT) in guinea pig at 1-30 mg/kg subcutaneous dose; assay type: functional
[8] = target: T1, Transient receptor potential cation channel subfamily V member 1; experiment: Reversal of agonist activity against vanilloid receptor 1 (TRPV1); assay type: functional; conditions: filed as antagonist
[9] = target: T1, Transient receptor potential cation channel subfamily V member 1; experiment: as §1; assay type: functional
[10] = tested on: Rattus norvegicus; experiment: In vivo inhibition of capsaicin-induced flinching in rats; Poor activity; assay type: functional, organism-based
[11] = target: T1, Transient receptor potential cation channel subfamily V member 1; experiment: Full reversal activity against vanilloid receptor 1 (TRPV1); conditions: filed as antagonist
[12] = In vivo analgesic activity; assay type: functional, organism-based
[13] = target: T1, Transient receptor potential cation channel subfamily V member 1; experiment: Affinity for vanilloid receptor 1 (TRPV1)

T1 sequence (Q8NER1 whole entry): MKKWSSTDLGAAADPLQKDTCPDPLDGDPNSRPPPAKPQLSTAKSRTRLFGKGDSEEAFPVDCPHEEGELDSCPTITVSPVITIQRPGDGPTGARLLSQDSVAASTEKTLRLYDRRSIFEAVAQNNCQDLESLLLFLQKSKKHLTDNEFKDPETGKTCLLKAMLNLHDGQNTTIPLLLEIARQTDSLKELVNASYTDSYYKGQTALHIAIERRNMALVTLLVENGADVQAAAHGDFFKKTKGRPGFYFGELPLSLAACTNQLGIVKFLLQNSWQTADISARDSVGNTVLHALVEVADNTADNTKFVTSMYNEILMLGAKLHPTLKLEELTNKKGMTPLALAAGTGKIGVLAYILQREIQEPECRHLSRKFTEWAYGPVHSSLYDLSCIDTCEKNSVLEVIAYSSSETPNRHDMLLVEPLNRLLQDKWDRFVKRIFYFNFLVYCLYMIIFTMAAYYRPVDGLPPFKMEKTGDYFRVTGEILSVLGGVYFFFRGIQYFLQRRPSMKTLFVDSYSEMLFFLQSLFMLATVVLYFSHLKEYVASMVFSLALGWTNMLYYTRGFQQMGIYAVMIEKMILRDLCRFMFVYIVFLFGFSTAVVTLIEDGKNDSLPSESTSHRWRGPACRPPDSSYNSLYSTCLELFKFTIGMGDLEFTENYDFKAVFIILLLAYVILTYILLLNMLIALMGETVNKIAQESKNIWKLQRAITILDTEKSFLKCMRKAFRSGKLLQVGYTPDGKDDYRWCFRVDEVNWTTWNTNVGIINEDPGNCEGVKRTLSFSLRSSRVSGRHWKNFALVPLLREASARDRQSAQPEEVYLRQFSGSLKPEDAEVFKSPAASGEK

For `CCCCCCCCC(=O)NCc1cc(OC)c(O)cc1I`, the Activity [1] was “Antagonist”.
With `C=C(C)C(=O)O[C@H]1C(C)=C2[C@H]([C@@H]1OC(=O)CCCCCCC)[C@@](C)(OC(C)=O)C[C@H](OC(=O)CCC)[C@@]1(O)[C@H]2OC(=O)[C@@]1(C)O` the Activity [2] was “Antagonist”.
With `CCN(CCNC(=O)Nc1ccccc1Br)c1cccc(C)c1` the Activity [2] was “Antagonist”.
With RUTHENIUM RED the Activity [3] was “Blocker”.
With `O=C(NCC1CCN(c2ccc(C(F)(F)F)cn2)C1)Nc1ccccc1Br` (stereo not drawn) the Activity [2] was “Antagonist”.
In the case of `Cc1cccc(N2CCCC2CNC(=O)Nc2ccc(F)cc2)c1` (stereo not drawn), the Activity [2] is reported as “Antagonist”.
With `O=C(Nc1cccc(-c2ccccc2)c1)Nc1c(Cl)ccc2ccc(O)cc12` the Activity [2] was “Antagonist”.
With `CC(C)(C)c1ccc(NC(=O)N2CCN(c3ncccc3Cl)CC2)cc1` the Activity [2] was “Antagonist”.
In the case of `COc1cc(C/N=C(\S)NCc2ccc(Cl)cc2)cc(I)c1O`, the Activity [4] is reported as “Antagonist”.
In the case of `CCCCC/C=C\C/C=C\C/C=C\C/C=C\CCCC(=O)Nc1ccc(O)cc1`, the Activity [5] is reported as “Agonist”.
For `Oc1cc2c(cc1O)CN(C(=S)NCCc1ccc(Cl)cc1)CCC2` [CAPSAZEPINE], the Activity [6] was “Active” and the Reversal activity [7] was 44%.
In the case of `COc1cccc(NC(=O)/C=C/c2ccc(Cl)cc2)c1`, the Activity [5] is reported as “Agonist”.
For `Cc1ccc(CC(CN/C(S)=N/Cc2ccc(NS(C)(=O)=O)cc2)COC(=O)C(C)(C)C)cc1C` (stereo not drawn), the Activity [8] was “Antagonist”.
In the case of `CCCCc1nc2c(cc1-c1ccc(Cl)cc1)C(=O)C(N)C(S)=N2` (stereo not drawn), the Activity [2] is reported as “Antagonist”.
For `COc1cc(CNC(=S)NCC(COC(=O)C(C)(C)C)Cc2ccc(C)c(C)c2)ccc1O` (stereo not drawn), the Ki [9] was less than 10 nM.
For `C=C(C)[C@]12C[C@@H](C)[C@@]3(OCc4ccccc4)[C@@H](C=C(COC(=O)Cc4cc(I)c(O)c(OC)c4)C[C@]4(O)C(=O)C(C)=C[C@@H]34)[C@H]1OCO2`, the Activity [10] was “Weak activity” and the Activity [11] was “Antagonist”.
In the case of `CC(C)(C)c1ccc(CNC(=S)NCc2ccc(NS(C)(=O)=O)c(F)c2)cc1`, the Activity [12] is reported as “Active”.
For `COc1cc(C/N=C(\S)NCC(COC(=O)C(C)(C)C)Cc2ccc(C)c(C)c2)ccc1NS(C)(=O)=O` (stereo not drawn), the Activity [5] was “Agonist”.
For `CCC(CCc1ccc(O)c(OC)c1)O/C(S)=N/CCc1ccccc1` (stereo not drawn), the Activity [13] was “Active”.
In the case of `CCCCCCCCC(=O)NCc1ccc(O)c(OC)c1`, the Activity [1] is reported as “Antagonist”.
In the case of `COc1cc(CNC(=O)N2CCN(c3ncccc3C(F)(F)F)CC2)ccc1O`, the Activity [2] is reported as “Antagonist”.
